Source: patent US8993542B2, “Methods of treating viral infections” (priority 2008, dated 2015)

Key:
HIV-1IIIB [1] = test: Two-drug combination antiviral assay in CEM cells (CPE), MacSynergy II; assay type: cell-based; conditions: in combination with CMX157, CEM-SS cells, 95% confidence
HIV-1IIIB [2] = test: Resistance selection by serial passage in CEM-SS cells; assay type: cell-based
Experimental: In vitro studies designed to select CMX157 resistant mutants use wild-type HIV-1 as the primary inoculum and TFV as a positive control. These studies are conducted by serial passage of HIV-1IIIB and HIV-1RF in CEM-SS cells using increasing concentrations of TFV or CMX157. Drug levels are increased following detection of viral growth at each passage using procedures known to one skilled in the art. Upon completion of each passage, the reverse transcriptase coding region of the viral genome is sequenced to identify any possible resistance-associated mutations that may have emerged within the virus pool.

[3] = Passage 1, Tenofovir 10 μM (2× IC50)
[4] = Passage 2, Tenofovir 20 μM (4× IC50)
[5] = Passage 3, Tenofovir 30 μM (6× IC50)
[6] = Passage 4, Tenofovir 40 μM (8× IC50)
[7] = Passage 5, Tenofovir 40 μM (8× IC50)
[8] = Passage 6, Tenofovir 40 μM (8× IC50)
[9] = Passage 7, Tenofovir 45 μM (9× IC50)
[10] = Passage 8, Tenofovir 50 μM (10× IC50)
[11] = Passage 9, Tenofovir 55 μM (11× IC50)
[12] = Passage 10, Tenofovir 60 μM (12× IC50)

Which results are given for C[C@H](Cn1cnc2c(N)ncnc21)OCP(=O)(O)O [TFV, (R)-9-(2-phosphonylmethoxypropyl)adenine]?
Antagonism Volume, Result 1 (HIV-1IIIB [1]): −0.53 nM^2 %, μM^2 % or nMμM %; Antagonism Volume, Result 2 (HIV-1IIIB [1]): 0 nM^2 %, μM^2 % or nMμM %; Antagonism Volume, Result 3 (HIV-1IIIB [1]): 0 nM^2 %, μM^2 % or nMμM %; Mean Antagonism Volume (n = 3) (HIV-1IIIB [1]): −0.18 nM^2 %, μM^2 % or nMμM %; Mean Synergy Volume (n = 3) (HIV-1IIIB [1]): 28.4 nM^2 %, μM^2 % or nMμM %; Synergy Volume, Result 1 (HIV-1IIIB [1]): 17.6 nM^2 %, μM^2 % or nMμM %; Synergy Volume, Result 2 (HIV-1IIIB [1]): 37.2 nM^2 %, μM^2 % or nMμM %; Synergy Volume, Result 3 (HIV-1IIIB [1]): 30.3 nM^2 %, μM^2 % or nMμM %; passage by which K65R was selected (HIV-1IIIB [2]): ≤ 8 passage; Comments (virus replication) (HIV-1IIIB [2]; [3]): Low-level virus replication observed; Day of Peak Virus Production (HIV-1IIIB [2]; [3]): Day 6; Peak RT activity (HIV-1IIIB [2]; [3]): (3,525 cpm); Comments (virus replication) (HIV-1IIIB [2]; [4]): Low-level virus replication observed; Day of Peak Virus Production (HIV-1IIIB [2]; [4]): Day 7; Peak RT activity (HIV-1IIIB [2]; [4]): (2,016 cpm); Comments (virus replication) (HIV-1IIIB [2]; [5]): Low-level virus replication observed; Day of Peak Virus Production (HIV-1IIIB [2]; [5]): Day 14; Peak RT activity (HIV-1IIIB [2]; [5]): (2,062 cpm); Comments (virus replication) (HIV-1IIIB [2]; [6]): Low-level virus replication observed; Day of Peak Virus Production (HIV-1IIIB [2]; [6]): Day 6; Peak RT activity (HIV-1IIIB [2]; [6]): (3,109 cpm); Comments (virus replication) (HIV-1IIIB [2]; [7]): Low-level virus replication observed;; Day of Peak Virus Production (HIV-1IIIB [2]; [7]): Day 14; Peak RT activity (HIV-1IIIB [2]; [7]): (1,788 cpm); Comments (virus replication) (HIV-1IIIB [2]; [8]): Robust virus replication observed;; Day of Peak Virus Production (HIV-1IIIB [2]; [8]): Day 19; Peak RT activity (HIV-1IIIB [2]; [8]): (23,508); Comments (virus replication) (HIV-1IIIB [2]; [9]): Robust virus replication observed; minor; Day of Peak Virus Production (HIV-1IIIB [2]; [9]): Day 7; Peak RT activity (HIV-1IIIB [2]; [9]): (24,408 cpm); Comments (virus replication) (HIV-1IIIB [2]; [10]): Robust virus replication observed; E404D; Day of Peak Virus Production (HIV-1IIIB [2]; [10]): Day 9; Peak RT activity (HIV-1IIIB [2]; [10]): (57,455 cpm); Comments (virus replication) (HIV-1IIIB [2]; [11]): Robust virus replication observed;; Day of Peak Virus Production (HIV-1IIIB [2]; [11]): Day 11; Peak RT activity (HIV-1IIIB [2]; [11]): (25,458 cpm); Comments (virus replication) (HIV-1IIIB [2]; [12]): Robust virus replication observed;; Day of Peak Virus Production (HIV-1IIIB [2]; [12]): Day 7; Peak RT activity (HIV-1IIIB [2]; [12]): (31,549 cpm)
